For assay [1], the system named is blood flow in the pancreas capillary vessel. As to the kind of experiment: Bioassay in anesthetized dogs: blood flow in the pancreas capillary vessel (laser-Doppler perfusion monitor). In kind it is in vivo, mongrel dogs. As for the experimental part: The synthetic hCCK-33 was concurrently subjected to the bioassay with synthetic hCCK-8 to determine the activity. The bioassay was carried out by measuring the blood flow in the pancreas capillary vessel and the protein release from pancreas using a group of four mongrel dogs anesthesized with pentobarbital. The blood flow in the pancreas capillary vessel was measured using a laser-Doppler perfusion monitor and the protein concentration in the pancreas was determined according to the method of O. H. Lowry, N. J. Rosebrough, A. L. Farr and R. J. Randall, J. Biol. Chem. 193, 265 (1951). Bolus injections of 1.0, 3.125, 6.25, 12.5, 25, 50, 100 and 200 picomoles per kg body weight of the synthetic hCCK-33 and CCK-8 were given through a femoral vein catheter each at an interval of 60 minutes. […] The increasing effect could be noted even with the lowest dose of 3.125 picomoles/kg and the highest effect was obtained with the dose of 200 picomoles/kg. […] The color intensity by the ninhydrin reaction was determined using a Shimadzu Dual Wavelength TLC Scanner Model CS-900. […] The blood flow in pancreas capillary vessel was monitored using a laser-Doppler perfusion monitor (Model LD 5000 manufactured by Seattle Model Pacific Co., Wash., U.S.A.).

Assay [2] concerns protein release from pancreas. As to the kind of experiment: Bioassay in anesthetized dogs: protein release from pancreas (Lowry method). In kind it is in vivo, mongrel dogs. As for the experimental part:
The synthetic hCCK-33 was concurrently subjected to the bioassay with synthetic hCCK-8 to determine the activity. The bioassay was carried out by measuring the blood flow in the pancreas capillary vessel and the protein release from pancreas using a group of four mongrel dogs anesthesized with pentobarbital. The blood flow in the pancreas capillary vessel was measured using a laser-Doppler perfusion monitor and the protein concentration in the pancreas was determined according to the method of O. H. Lowry, N. J. Rosebrough, A. L. Farr and R. J. Randall, J. Biol. Chem. 193, 265 (1951). Bolus injections of 1.0, 3.125, 6.25, 12.5, 25, 50, 100 and 200 picomoles per kg body weight of the synthetic hCCK-33 and CCK-8 were given through a femoral vein catheter each at an interval of 60 minutes. […] The increasing effect could be noted even with the lowest dose of 3.125 picomoles/kg and the highest effect was obtained with the dose of 200 picomoles/kg. The activity of the synthetic hCCK-33 was 92% of that of the synthetic CCK-8 on the molar basis in respect of the effects on the blood flow in the pancreas capillary vessel and the protein release from pancreas. […] Since the ratio of the activity of the unsulfated hCCK-33 to the activity of CCK-8, taken as unity on the molar basis, was 0.074 in the aforementioned assay with dogs, it was concluded that an important role is played by the sulfated sites in the molecules having influences on the in vivo activity of CCKs. FIG. 6 illustrates the increase in the protein release from pancreas of an anesthetized dog in response to these 3 kinds of CCK-peptides.

Assay [3] deals with gastric juice, pepsin release and pancreas secretion. Briefly: Gastric juice, pepsin release and pancreas secretion in living rats. To be noted: living samples of rats. It is filed as in vivo.
Another assay relates to excised gastric tissues. Briefly: Stimulation of pepsinogen secretion from excised gastric tissues of guinea pigs. It is filed as cell-based.
The nature of assay [4]: Activity compared with swine CCK-33 (test not specified). The note with it: conclusion drawn through CCK-8. As for the experimental part:
Bolus injections of 1.0, 3.125, 6.25, 12.5, 25, 50, 100 and 200 picomoles per kg body weight of the synthetic hCCK-33 and CCK-8 were given through a femoral vein catheter each at an interval of 60 minutes. […] The increasing effect could be noted even with the lowest dose of 3.125 picomoles/kg and the highest effect was obtained with the dose of 200 picomoles/kg. The activity of the synthetic hCCK-33 was 92% of that of the synthetic CCK-8 on the molar basis in respect of the effects on the blood flow in the pancreas capillary vessel and the protein release from pancreas. […] Since the ratio of the activity of the unsulfated hCCK-33 to the activity of CCK-8, taken as unity on the molar basis, was 0.074 in the aforementioned assay with dogs, it was concluded that an important role is played by the sulfated sites in the molecules having influences on the in vivo activity of CCKs.

The mark [5] stands for this setting: bolus injection through femoral vein catheter, 1.0-200 picomoles per kg.
[6] abbreviates: bolus injections 1.0-200 picomoles per kg.

Molecules are shown by their SMILES. Non-standard residues stand in square brackets, D forms with d. Residues, ends and D or L forms follow the SMILES beside them. sY = N[C@@H](Cc1ccc(OS(=O)(=O)O)cc1)C(=O)O

On to `CC[C@H](C)[C@H](NC(=O)[C@H](CCCNC(=N)N)NC(=O)[C@H](Cc1c[nH]cn1)NC(=O)[C@H](CO)NC(=O)[C@@H]1CCCN1C(=O)[C@H](CC(=O)O)NC(=O)[C@H](CC(C)C)NC(=O)[C@H](CC(N)=O)NC(=O)[C@H](CCC(N)=O)NC(=O)[C@H](CC(C)C)NC(=O)[C@H](CC(N)=O)NC(=O)[C@H](CCCCN)NC(=O)[C@@H](NC(=O)[C@@H](NC(=O)[C@H](CO)NC(=O)[C@H](CCSC)NC(=O)[C@H](CCCNC(=N)N)NC(=O)CNC(=O)[C@H](CO)NC(=O)[C@@H]1CCCN1C(=O)[C@H](C)NC(=O)[C@@H](N)CCCCN)[C@@H](C)CC)C(C)C)C(=O)N[C@@H](CO)C(=O)N[C@@H](CC(=O)O)C(=O)N[C@@H](CCCNC(=N)N)C(=O)N[C@@H](CC(=O)O)C(=O)N[C@@H](Cc1ccc(OS(=O)(=O)O)cc1)C(=O)N[C@@H](CCSC)C(=O)NCC(=O)N[C@@H](Cc1c[nH]c2ccccc12)C(=O)N[C@@H](CCSC)C(=O)N[C@@H](CC(=O)O)C(=O)N[C@@H](Cc1ccccc1)C(N)=O` [synthetic hCCK-33] (H-KAPSGRMSIVKNLQNLDPSHRISDRD[sY]MGWMDF-NH2), for which the “activity relative to synthetic CCK-8 on the molar basis, blood flow in the pancreas capillary vessel” value in assay [1] (setting [5]) stood at 92%. Moreover, the “pancreas blood flow, dose dependence” value in assay [1] (setting [6]) was “increased in parallel with the dose”. In addition, in assay [2] (bolus injection), the “dose giving the highest effect” value was found to be 200 picomoles/kg and the “lowest dose at which the increasing effect could be noted” value is on record as 3.125 picomoles/kg. The “activity relative to synthetic CCK-8 on the molar basis, protein release from pancreas” value in assay [2] (setting [5]) was 92%. Further, in assay [2] (setting [6]), the “protein release from pancreas, dose dependence” value is listed as “increased in parallel with the dose”. The “activity relative to CCK-8 on the molar basis, gastric juice, pepsin release and pancreas secretion” value in assay [3] was “about two to three times more active than the CCK-8”. For the same compound, in the assay with excised gastric tissues, the “activity relative to CCK-8 on the molar basis, stimulation of pepsinogen secretion” value is given as “about the same as the CCK-8”. In addition, in assay [4], the “activity compared with natural swine CCK-33” value is “comparable with or even higher than”.
